One data set concerns MCF7. As to the kind of experiment: Anticancer activity against human MCF7 assessed as inhibition of cell growth by MTT assay. The data set is classed as functional, cell-based.
The test system of a further data set is MDA-MB-231. As to the kind of experiment: Anticancer activity against human MDA-MB-231 assessed as inhibition of cell growth by MTT assay. In kind it is functional, cell-based. For orientation: Tetrazolium assays rely on reduction of a dye to a coloured formazan, in cell work by metabolically active cells.
The test system of the next data set is HEK293. The data set can be described thus: Cytotoxicity against human HEK293 assessed as inhibition of cell growth. In kind it is cell-based.

In general, IC50 refers to the midpoint of a concentration-inhibition curve. With `COc1ccc(-c2cc3ccc(OC)c(CCC(C)C)c3oc2=O)cc1OC`, the values for the IC50 in the data set on MCF7 and with MDA-MB-231 were 51.6 µM and more than 50 µM, respectively.

Take `COc1ccc2cc(-c3ccc(C(F)(F)F)cc3)c(=O)oc2c1CCC(C)C`: the results for the IC50 in the data set with MCF7 and in the data set with MDA-MB-231 were 24.5 µM and 38.1 µM, respectively.

For `CC(C)CCc1c(O)ccc2cc(-c3ccc(C(F)(F)F)cc3)c(=O)oc12`, the IC50 with MCF7 was 42.9 µM; in the data set on MDA-MB-231, more than 50 µM.

As for `COc1ccc2cc(-c3ccc(F)cc3)c(=O)oc2c1CCC(C)C`, the IC50 in the data set on MCF7 is 52.6 µM; in the data set with MDA-MB-231, more than 50 µM.

For `COc1ccc2cc(-c3ccc(OC(F)(F)F)cc3)c(=O)oc2c1CCC(C)C`, the IC50 came to 0.24 µM in the data set with MCF7 and 0.31 µM with MDA-MB-231. In the data set with HEK293, the Activity entry is reported as “Non-toxic”.

`COc1ccc2cc(-c3ccc(F)c(F)c3)c(=O)oc2c1CCC(C)C`: the IC50 is 27.3 µM with MCF7 and 33.6 µM in the data set on MDA-MB-231.

On to `COc1ccc2cc(-c3ccc(C)cc3)c(=O)oc2c1CCC(C)C`, for which the figures for the IC50 in the data set with MCF7 and in the data set on MDA-MB-231 were 50.2 µM and more than 50 µM, respectively.

Take `COc1ccc2cc(-c3ccc(O)cc3)c(=O)oc2c1CCC(C)C`: the IC50 in the data set on MCF7 worked out at 3.23 µM; in the data set on MDA-MB-231 it was 4.15 µM.

As to `COc1ccc2cc(-c3ccc(Cl)cc3)c(=O)oc2c1CCC(C)C`, the IC50 was 1.27 µM in the data set on MCF7 and 5.23 µM in the data set with MDA-MB-231. Moreover, the Activity result in the data set with HEK293 is “Non-toxic”.

As for `CC(C)CCc1c(O)ccc2cc(-c3ccc(OC(F)(F)F)cc3)c(=O)oc12`, the IC50 with MCF7 came to 5.7 µM; in the data set with MDA-MB-231, 7.42 µM.

Consider `COc1ccc2cc(-c3cccnc3)c(=O)oc2c1CCC(C)C`, for which the IC50 with MCF7 and in the data set with MDA-MB-231 was more than 50 µM in each case.

With `COc1ccc2c(Oc3ccc4ccc(=O)oc4c3CCC(C)C)cc(=O)oc2c1`, the IC50 with MCF7 and in the data set on MDA-MB-231 was more than 50 µM in each case.

For the compound `CC(C)CCc1c(Oc2cc(=O)oc3cc(O)ccc23)ccc2ccc(=O)oc12`, the 50% inhibitory concentration (IC50) in the data set with MCF7 and with MDA-MB-231 was more than 50 µM throughout.

On to `COc1ccc2c(Oc3ccc4cc(-c5ccc(C(F)(F)F)cc5)c(=O)oc4c3CCC(C)C)cc(=O)oc2c1`, for which the IC50 with MCF7 is 45.9 µM; in the data set on MDA-MB-231, more than 50 µM.

For `CC(C)CCc1c(O)ccc2ccc(=O)oc12`, the concentration for half-maximal inhibition (IC50) in the data set on MCF7 and with MDA-MB-231 was more than 50 µM each time.

As for `COc1ccc2ccc(=O)oc2c1CCC(C)C`, the IC50 in the data set on MCF7 is 47 µM; with MDA-MB-231, more than 50 µM.

With `COc1ccc2ccc(=O)oc2c1CC=C(C)C` [OSTHOLE], the IC50 is 25.8 µM in the data set with MCF7 and 30.2 µM in the data set with MDA-MB-231.

The values are drawn from ChEMBL document CHEMBL1287759, “Discovery of novel osthole derivatives as potential anti-breast cancer treatment” (Bioorg Med Chem Lett, 2010).
